“Also recorded” adds a separate entry of the source. Where a SMILES comes first, the peptide text is derived from it. Where no end group is shown, it is not given here. [ ]: non-standard residue; d: D form. The star is where a group is joined. Palmitoyl = CCCCCCCCCCCCCCCC(=O)*
Key:
[1] = ATR-FT-IR determination of β-sheet content; assay type: physicochemical; details: 1 mg/mL in PBS lyophilized; integral at 1630 cm^-1 relative to 1650-1700 cm^-1
Protocol: ATR-FT-IR: ATR-IR spectra acquisition and the calculation of β-sheet content were conducted according prior art procedures. Briefly, FT-IR spectra of solid samples were recorded after lyophilization of fibril solutions using a Bruker Tensor II spectrometer equipped with a diamond crystal as ATR element with a spectral resolution of 2 cm^-1, each spectrum was an average of 64 scans. The data was processed with Origin software. β-sheet amount was determined by calculating the integral of the peak at 1630 cm-1 (β-sheet) relative to the integral between 1650-1700 cm-1 (native structure) from the 2nd derivative of the FT-IR spectra.

[2] = Fluorescence microscopy of ThT-stained fibrils (µm-sized aggregates); assay type: physicochemical; details: 1 mg/mL stained with 50 µM ThT
Protocol: (§1) Transmission electron microscopy (TEM) measurements, Thioflavin (ThT), zeta-potential measurements for fibril characterization were prepared and conducted according to prior art procedures. […] Fibrils were defined as distinct, if no visible structures could be identified in fluorescence and brightfield microscopy.
Fluorescence microscopy: 1 µL Fibrils (1 mg mL^-1) were stained with 9 µL, 50 µM ThT. 10 µL of the stained fibrils (0.1 mg mL^-1) were placed on a microscopy glass. Fluorescence microscopy measurements were performed on a Leica DMi8 microscope with 10x air objective and equipped with a Leica MC170 HD camera with a filter setting λem = 527/30 nm upon excitation at λex = 480/40 nm) and processed with the Leica LASX software.

[3] = test system: HIV-1; details: for Infectivity enhancing N fold at 1.3 µM: relative to virus only; for enhancement of HIV-1 infection / transduction (in words): 6.5 µM, 1.3 µM, 0.26 µM;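 for all read-outs here: TZM-bl reporter cells exposed to HIV-1 with peptide fibrils, infection read out as β-galactosidase luminescence, compared with virus alone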
Protocol: HIV-1 Infection Assay with TZM-bl cells: The effect of peptide fibrils on HIV-1 infection was studied via a luminescence assay for β-galactosidase, which was reported by TZM-bl cells upon infection. The HIV-1 infection assay was conducted in three technical replicates and repeated in three independent experiments unless stated otherwise.

[4] = TEM of peptide assemblies (fibril formation / assembly); assay type: physicochemical; details: for TEM morphology (in words): 1 mg/mL in PBS; for Assembly without hydrophob residue: corresponding peptide without hydrophobic moiety; for Assembly: peptide amphiphile
Protocol: The peptides were predissolved in DMSO to a concentration of 10 mg/mL. The fibril formation was induced by further diluting the solution to a final incubation concentration of 650 µM or 1 mg/mL in PBS as indicated in the text and incubated for 1 d (1 day) at rt (room temperature, 20 °C - 25 °C). Other concentrations as described herein were achieved by further dilution of preformed fibrils.
as §1

[5] = test system: HeLa cells; test: Confocal laser scanning microscopy and degradation study with PA library and HeLa cells; assay type: cell-based; details: for association with cellular membranes: 2 µg added to 20.000 HeLa cells, 30 min
Protocol: In general, the procedure for determine whether a PA is degraded or not, is conducted by confocal laser scanning microscopy of Proteostat stained PAs which are added to Hela cells (2 µg peptide added to 20.000 cells). Microscopy is conducted at day 0 (d0, after 30 min of incubation) and at day 3 (d3, after 72 h of incubation). The number of aggregates >10 µm^2 is counted via 3D object counter in imaged in an area of 1008 µm × 1008 µm.
A PA is considered to be degradable if the number and the size of aggregates are reduced after 3 days. The efficiency is determined by the percentual degradation (aggregate number at d3 / aggregate number at d0). For the number of aggregation three technical replicates were evaluated for each sample. A large deviation represents a nonhomogeneous spatial distribution of aggregates.
Confocal laser scanning microscopy and degradation study with PA library and HeLa cells: Confocal laser scanning microscopy studies were performed for the visualization of the cell-PA interaction. HeLa cells were seeded one day prior to conducting the assay (20,000/well) in an 8-well IBIDI slide. […] The nucleus of the HeLa cells was stained with Hoechst 33342 (NucBlue™, Thermo Fisher Scientific). The peptide solution mixture was transferred to the HeLa cells and incubated for 30 min at 37°C before washing three times with PBS. […] For the evaluation of aggregate degradation, the samples were further incubated at 37°C for 3 d and analyzed without any additional washing step. […] The number of aggregates were determined by counting aggregates larger than the threshold 10 µm^2 in an area of 1008 × 1008 µm and repeated in three technical triplicates.

Compound | β-sheet amount [1] [%] | fluorescent, µm-sized aggregates (ThT staining) [2] | TEM morphology (in words) [4] | infectivity enhancement at 1.3 µM concentration compared to virus only infection (in words) [3] | enhancement of HIV-1 infection / transduction (in words) [3] | other results
CCCCCCCCCCCCCCCC(=O)N[C@@H](C(=O)N[C@@H](C(=O)N[C@@H](C(=O)N[C@H](C)C(=O)N[C@H](C)C(=O)N[C@H](C)C(=O)N[C@H](CCCCN)C(=O)N[C@H](CCCCN)C(=O)N[C@H](CCCCN)C(N)=O)C(C)C)C(C)C)C(C)C [Pat14, C16-vvvaaakkk-NH2] (Palmitoyl-[dV][dV][dV][dA][dA][dA][dK][dK][dK]-NH2) | 49 | fluorescent, µm-sized aggregates | fibrillar morphologies |  |  | enhances infectivity at 1.3 µM concentration, times more efficient compared to virus only infection [3]: 7 times; Infectivity enhancing N fold at 1.3 µM [3]: 7±1 N fold; Assembly without hydrophob residue [4]: No; Assembly [4]: Yes; association with cellular membranes [5]: association with cellular membranes; degradability (in words) ([5]; HeLa cells, 3 days): is not degraded; also recorded: cannot be degraded; also recorded: non-degradable PA; Degradability / % (rel. to initial particles > 10 µm^2) ([5]; HeLa cells, 3 d relative to 30 min): -116%; aggregate number increases ([5]; d3 relative to d0): 116%
CCCCCCCCCCCCCCCC(=O)N[C@@H](CCCNC(=N)N)C(=O)N[C@@H](CCCNC(=N)N)C(=O)N[C@@H](Cc1c[nH]c2ccccc12)C(=O)N[C@@H](CCC(N)=O)C(=O)N[C@@H](Cc1c[nH]c2ccccc12)C(=O)N[C@@H](CCCNC(=N)N)C(N)=O [Pat22, C16-RRWQWR-NH2] (Palmitoyl-RRWQWR-NH2) | 0 |  | fibrillar morphologies | does not enhance infectivity | no infectivity enhancement can be observed | Infectivity enhancing N fold at 1.3 µM [3]: 0±0 N fold; Assembly without hydrophob residue [4]: No; Assembly [4]: Yes; association with cellular membranes [5]: no association with cellular membranes
CC(C)[C@@H](N)C(=O)N[C@@H](C(=O)N[C@@H](C(=O)N[C@H](C)C(=O)N[C@H](C)C(=O)N[C@H](C)C(=O)N[C@H](CCCCN)C(=O)N[C@H](CCCCN)C(=O)N[C@H](CCCCN)C(N)=O)C(C)C)C(C)C [Pat33, vvvaaakkk-NH2] (H-[dV][dV][dV][dA][dA][dA][dK][dK][dK]-NH2) | 45 | no fluorescent, µm-sized aggregates | no fibrillar morphologies but amorphous aggregates | cannot enhance infectivity |  | 
AGGRVK-NH2 [Pat37, AGGRVK-NH2] | 0 | no fluorescent, µm-sized aggregates | no fibrillar morphologies | cannot enhance infectivity |  | 
AKAVGK-NH2 [Pat50, AKAVGK-NH2] | 33 | no fluorescent, µm-sized aggregates | no fibrillar morphologies but amorphous aggregates | cannot enhance infectivity |  | 
ALAAGKK-NH2 [Pat39, ALAAGKK-NH2] | 0 | no fluorescent, µm-sized aggregates | no fibrillar morphologies | cannot enhance infectivity |  | 
AQAKAK-NH2 [Pat35, AQAKAK-NH2] | 29 | no fluorescent, µm-sized aggregates | no fibrillar morphologies but amorphous aggregates | cannot enhance infectivity |  | 
AVAKKK-NH2 [Pat40, AVAKKK-NH2] | 29 | no fluorescent, µm-sized aggregates | no fibrillar morphologies but amorphous aggregates | cannot enhance infectivity |  | 
GGGSSKKK-NH2 [Pat47] | 10 | no fluorescent, µm-sized aggregates | no fibrillar morphologies |  | not potent enhancers of HIV-1 infection | 
GKVGSK-NH2 [Pat49, GKVGSK-NH2] | 4 | no fluorescent, µm-sized aggregates | no fibrillar morphologies |  | not potent enhancers of HIV-1 infection | 
IIQKIK-NH2 [Pat34, IIQKIK-NH2] | 31 | no fluorescent, µm-sized aggregates | no fibrillar morphologies |  | not potent enhancers of HIV-1 infection | 
KGVPGVGK-NH2 [Pat44] | 22 |  | fibrillar morphologies | do not enhance infectivity |  | TEM morphology (in words) ([4]; listed as KGVPGVGK): unexpectedly forming fibrils by themselves
KIISFK-NH2 [Pat51, KIISFK-NH2] | 38 | no fluorescent, µm-sized aggregates | no fibrillar morphologies |  | not potent enhancers of HIV-1 infection | 
KYIHQNYTKALAGKLV-NH2 [Pat45] | 34 | no fluorescent, µm-sized aggregates | no fibrillar morphologies |  | not potent enhancers of HIV-1 infection | 
LLLKK-NH2 [Pat42, LLLKK-NH2] | 33 | no fluorescent, µm-sized aggregates | no fibrillar morphologies | cannot enhance infectivity |  | 
LNGGVKK-NH2 [Pat38, LNGGVKK-NH2] | 0 | no fluorescent, µm-sized aggregates | no fibrillar morphologies |  | not potent enhancers of HIV-1 infection | 
RRWQWR-NH2 [Pat41, RRWQWR-NH2] | 0 |  | amorphous aggregates | cannot enhance infectivity |  | association with cellular membranes [5]: no association with cellular membranes
VVAAHHH-NH2 [Pat43, VVAAHHH-NH2] | 0 | no fluorescent, µm-sized aggregates | no fibrillar morphologies |  | not potent enhancers of HIV-1 infection | 
WEALKK-NH2 [Pat36, WEALKK-NH2] | 31 | no fluorescent, µm-sized aggregates | no fibrillar morphologies but amorphous aggregates | cannot enhance infectivity |  | 

— patent EP4458977A1, “SELF-ASSEMBLING PEPTIDE AMPHIPHILES AS RETROVIRAL TRANSDUCTION ENHANCERS” (Max-Planck-Gesellschaft zur Förderung der Wissenschaften …, priority 2023, dated 2024)
